The source of these data is US7514411B2, “Acylated benzylmaltosides as inhibitors of smooth muscle cell proliferation” (Wyeth, priority 1998, dated 2009).

The first experiment deals with Porcine Smooth Muscle Cell. Nature of the experiment: Effects of compounds on cell proliferation using 3H thymidine incorporation. It counts as cell-based. To be noted: @ 50 μM. The protocol:
The compounds of this invention are useful as antiproliferative agents. The following procedures show the evaluation of representative compounds of this invention in standard pharmacological test procedure which measured ability of the evaluated compound to inhibit smooth muscle cell proliferation
Effects of Compounds On Cell Proliferation Using ^3H Thymidine Incorporation
Human and porcine smooth muscle cells were tested in early passage (generally passage 3-7) at sub-confluent conditions. Cultures were grown in 16 mm (24 well) multi-well culture dishes in medium 199 supplemented with 10% fetal bovine serum and 2% antibiotic/antimycotic. At sub-confluence, the cells were placed in a defined serum free medium (AIM-V; Gibco) for 24-48 h prior to initiating the experimental protocol.
Compounds were added to each well at 50 fold dilution (20 μL/well) and the plates were incubated for 24-36 h at 37° C. in 5% CO2. Compounds were initially dissolved in 50% ethanol and serially diluted into media. Compounds were routinely evaluated at concentrations from 1 to 100 μM. As a control, grade II porcine intestinal mucosal heparin (sodium salt) was routinely evaluated in all cell preparations at concentrations from 0.1 to 100 μg/mL.
At the completion of the test procedure, plates were placed on ice, washed three times with ice cold phosphate buffered saline (PBS) and incubated in ice cold 10% trichloroacetic acid (TCA) got 30 min to remove acid soluble proteins. Solution was transferred to scintillation vials containing 0.4 N HCl (500 μL/vial to neutralize NaOH) and each well was rinsed two times with water (500 μL) for a total volume of 2 mL/vial.
Data was obtained, in triplicate, for both control and experimental samples. Control (100%) data was obtained from maximally stimulated cells, as the result of growth factor or serum stimulation. Experimental data was obtained from cells maximally stimulated with growth factor or serum and treated with compound. Data are expressed as an IC50 or percent inhibition in Table I below.
(In general: Uptake of a labelled nucleoside into DNA is a usual measure of proliferation.)
As for `CC(=O)Nc1cc(CSC2OC(CO)C(OC3OC(CO)C(O)C(O)C3O)C(O)C2O)ccc1Cl` (stereo not shown) [Example 19], the “Porcine Smooth Muscle Cell Antiproliferation percent inhibition” value stood at 28% @ 50.

Staying with this experiment, now noted: @ 500 μM.
Consider `CC(=O)Nc1cc(COC2OC(CO)C(OC3OC(CO)C(O)C(O)C3O)C(O)C2O)ccc1Cl` [Example 9, N-[2-Chloro-5-(β-D-maltosyl-oxymethyl)-phenyl]-acetamide], for which the “Porcine Smooth Muscle Cell Antiproliferation percent inhibition” value is given as 0% @ 500.

The same experiment, now with this note: serum/growth factor stimulated cells, 3H thymidine incorporation, 24-36 h; read-out: Porcine Smooth Muscle Cell Antiproliferation IC50.
Turning to `CC(=O)OC[C@H]1O[C@H](O[C@H]2[C@H](OC(C)=O)[C@@H](OC(C)=O)[C@H](OCc3ccc(Cl)c([N+](=O)[O-])c3)O[C@@H]2COC(C)=O)[C@H](OC(C)=O)[C@@H](OC(C)=O)[C@@H]1OC(C)=O` [Example 1, 4-Chloro-3-nitro-benzyl-β-D-maltoside heptaacetate], the IC50 amounted to 850 nM.
The same measure, in the same setting: as for `CC(=O)O[C@@H]1[C@@H](OC(C)=O)[C@@H](O[C@H]2[C@H](OC(C)=O)[C@@H](OC(C)=O)[C@H](OCc3ccc(C)c([N+](=O)[O-])c3)O[C@@H]2COS(=O)(=O)c2ccc(C)cc2)O[C@H](COS(=O)(=O)c2ccc(C)cc2)[C@H]1OC(C)=O` [Example 21, 5-{[2,2′,3,3′,4′-Penta-O-acetyl-6,6′-bis-O-(4-toluenesulfonyl)-β-maltosyl]-oxy-methyl}-2-methyl-1-nitrobenzene], the figure is 67400 nM; as for `CC(=O)OC[C@H]1O[C@H](O[C@H]2[C@H](OC(C)=O)[C@@H](OC(C)=O)[C@H](OCc3ccc(C#N)c([N+](=O)[O-])c3)O[C@@H]2COC(C)=O)[C@H](OC(C)=O)[C@@H](OC(C)=O)[C@@H]1OC(C)=O` [Example 8, 5-[(Hepta-O-acetyl-β-D-maltosyl)-oxy-methyl]-2-cyano-1-nitrobenzene], 2050 nM.
The same measure, in the same setting: as for `CC(=O)Nc1cc(CO[C@@H]2O[C@H](COC(=O)c3ccccc3)[C@@H](O[C@H]3O[C@H](COC(=O)c4ccccc4)[C@@H](OC(C)=O)[C@H](OC(C)=O)[C@H]3OC(C)=O)[C@H](OC(C)=O)[C@H]2OC(C)=O)ccc1Cl` [Example 13, N-{2-Chloro-5-[([6,6′-di-O-benzoyl-2,2′,3,3′,4′-penta-acetyl-β-D-maltosyl]oxy)methyl]phenyl}-acetamide], the figure is 360 nM; as for `CC(=O)OC[C@H]1O[C@@H](SCc2ccc(Cl)c([N+](=O)[O-])c2)[C@H](OC(C)=O)[C@@H](OC(C)=O)[C@@H]1O[C@H]1O[C@H](COC(C)=O)[C@@H](OC(C)=O)[C@H](OC(C)=O)[C@H]1OC(C)=O` [Example 5, (4-Chloro-3-nitro-benzyl)-hepta-O-acetyl-1-thio-β-D-maltoside], 1140 nM.
On the same count and under the same terms, as for `CC(=O)Nc1cc(CO[C@@H]2O[C@H](CO[Si](C)(C)C(C)(C)C)[C@@H](O[C@H]3O[C@H](CO[Si](C)(C)C(C)(C)C)[C@@H](O)[C@H](O)[C@H]3O)[C@H](O)[C@H]2O)ccc1C` [Example 10, N-{5-[6,6′-Di-O-(tert-butyl-dimethyl-silyl)-β-D-maltosyloxy-methyl]-2-methyl-phenyl}-acetamide], the figure is 6100 nM.
As for `CC(=O)OC[C@H]1O[C@H](O[C@H]2[C@H](OC(C)=O)[C@@H](OC(C)=O)[C@H](OCc3ccc(Cl)c(NC(=O)c4ccc(C(=O)c5ccccc5)cc4)c3)O[C@@H]2COC(C)=O)[C@H](OC(C)=O)[C@@H](OC(C)=O)[C@@H]1OC(C)=O` [Example 4, 4-Benzoyl-N-{2-chloro-5-[(2,2′,3,3′,4′,6,6′-hepta-O-acetyl-β-D-maltosyl)-oxy-methyl]-phenyl}-benzamide], the IC50 is 164 nM.
The same measure, in the same setting: as for `CC(=O)OC[C@H]1O[C@H](O[C@H]2[C@H](OC(C)=O)[C@@H](OC(C)=O)[C@H](OCc3ccc(Cl)c(NC(=O)[C@H](C)NC(=O)OCC4c5ccccc5-c5ccccc54)c3)O[C@@H]2COC(C)=O)[C@H](OC(C)=O)[C@@H](OC(C)=O)[C@@H]1OC(C)=O` [Example 3, N-{2-Chloro-5-[(2,2′,3,3′,4′,6,6′)-hepta-O-acetyl-β-D-maltosyl-oxymethyl]-phenyl}-(9H-fluoren-9-ylmethoxycarbonyl)-L-alaninamide], the figure is 1710 nM.
